Assay results reported in publication PMC11701928, “Co-crystal structure of Helicobacter pylori biotin protein ligase with biotinyl-5-ATP” (Acta Crystallographica Section F: Structural Biology …, 2025).

Molecular target: T1, HpBPL (Helicobacter pylori, UniProt B5Z8D8)
T1 construct: gene HPG27_1085
T1 sequence (B5Z8D8 1-212): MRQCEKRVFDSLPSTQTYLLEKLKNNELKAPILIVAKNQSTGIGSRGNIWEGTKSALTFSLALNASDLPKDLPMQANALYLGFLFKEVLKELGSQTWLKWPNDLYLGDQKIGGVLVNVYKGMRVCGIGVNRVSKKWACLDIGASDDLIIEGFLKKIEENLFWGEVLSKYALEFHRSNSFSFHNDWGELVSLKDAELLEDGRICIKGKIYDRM
Assay: turnover to biotinyl-5-ATP seen in crystal structure
Assay type: biochemical
Conditions: 10 min

SMILES | turnover to biotinyl-5-ATP seen in crystal structure (6 mM ATP with 6 mM biotin and 6 mM MgCl2, 25 °C) | turnover to biotinyl-5-ATP seen in crystal structure (6 mM biotin with 6 mM ATP and 6 mM MgCl2, 25 °C)
Nc1ncnc2c1ncn2[C@@H]1O[C@H](COP(=O)(O)OP(=O)(O)OP(=O)(O)O)[C@@H](O)[C@H]1O [ATP] | catalytically active and generates biotinyl-5-ATP upon incubation with MgCl2, ATP and biotin | –
O=C(O)CCCC[C@@H]1SC[C@@H]2NC(=O)N[C@@H]21 [biotin] | – | catalytically active and generates biotinyl-5-ATP upon incubation with MgCl2, ATP and biotin
